Measured values from patent publication US20040121965A1, “Method of treating resistant tumors” (Wyeth Holdings Corporation, priority 2002, published 2004).
Read-outs that look alike come from different tables or passages of the source. Marks after values point to notes of the source that are not given here.

Tests used:
Lox = assay: Cell survival assay (SRB), Lox; type: cell-based; conditions: Homo sapiens, 72 h
Experimental: (§1) 2.2. Cell Survival Assay: Standard Pharmacological Test Procedure. […] Compounds are incubated with cells for 3 days.

KB-HTI-4.0 = assay: Cell survival assay, KB-3-1 line made resistant to Example 129 (KB-HTI-4.0); type: cell-based, human; conditions: for IC50: Homo sapiens
SW620 = assay: Cell survival assay (SRB), SW620; type: cell-based; conditions: Homo sapiens, SW-620, 72 h
Experimental: as §1

A375 = assay: Cell survival assay (SRB), A375; type: cell-based; conditions: Homo sapiens, A-375, 72 h
Experimental: as §1

[1] = test system: Human Epidermoid Carcinoma KB-3-1; assay: Growth of tumors in nude mice, KB-3-1 xenograft; type: in vivo; conditions: for % T/C on day 7 / % T/C on day 14 / % T/C on day 21: KB-3-1, days 1,5,9
Experimental: (§2) 2.4. Growth of Tumors in Nude Mice.
In these experiments, xenografts are implanted subcutaneously into the flanks of nude mice. […] Relative tumor mass compared to controls are assessed during the 21-day post-staging period.
Groups of 5 female nu/nu mice are injected with 1.5×10^6 KB-3-1 (A) or Lox cells (B). […] Relative tumor growth is determined during the experiment and % T/C calculated. Statistical analyses are Student's t-test of treated time points vs. vehicle (*, P<0.05; **, P<0.01)

Capan-1 = assay: Cell survival assay (SRB), Capan-1; type: cell-based; conditions: Homo sapiens
Experimental: as §1

KB-8.5 tumor = assay: Growth of tumors in nude mice, KB-8-5 xenograft; type: in vivo; conditions: days 1,5,9
Description: as §2

HL60 = assay: Cell survival assay (MTS), HL60; type: cell-based; conditions: Homo sapiens
[2] = test system: human carcinoma xenografts; assay: Growth of tumors in nude mice, several xenograft models and tolerated dose; type: in vivo
Description: as §2

KB-V1 (MDR1++) = assay: Cell survival assay (SRB), KB-V1 (MDR1++); conditions: for IC50: Homo sapiens
U87 = assay: Cell survival assay (SRB), U87; type: cell-based; conditions: Homo sapiens, U-87 MG, 72 h
Experimental: as §1

CCRF-CEM = assay: Cell survival assay (MTS), CCRF-CEM; type: cell-based; conditions: Homo sapiens, 72 h
Experimental: as §1

KB-3-1 = assay: Cell survival assay (SRB), KB-3-1; type: cell-based, human
Summary of the method: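 Step 1: add serial compound dilutions to cells in duplicate. Step 2: incubate 3 days. Step 3: fix in 10% TCA for 1 hr at 4 °C, stain with 0.04% SRB for 10 min, wash in 1% acetic acid, solubilise in 10 mM Trizma Base, measure absorbance and derive the 50%-growth-inhibition concentration.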

With CC(=O)O[C@H]1C(=O)[C@@]2(C)[C@H]([C@H](OC(=O)c3ccccc3)[C@]3(O)C[C@H](OC(=O)[C@H](O)[C@@H](NC(=O)c4ccccc4)c4ccccc4)C(C)=C1C3(C)C)[C@]1(OC(C)=O)CO[C@@H]1C[C@@H]2O [paclitaxel, reference compound] the IC50 (Lox; Lox, melanoma, 3 days, SRB staining, read-out: IC50) was 17.3 ± 5.6 nM, the IC50 (KB-HTI-4.0; KB-3-1 line made resistant to Example 129, Table 8, read-out: KB-HTI-4.0 IC50) was 3.18 ± 0.62 nM and the IC50 (SW620; SW620, colon, 3 days, SRB staining, read-out: IC50) was 18 nM. For the same molecule, the IC50 (A375; A375, melanoma, 3 days, SRB staining, read-out: IC50) was 14.1 ± 7.3 nM, the “% T/C on day 7” value ([1]; paclitaxel 60 mg/kg IV) was 5** % and the “% T/C on day 14” value ([1]; paclitaxel 60 mg/kg IV) was 0** %. For the same molecule, the “% T/C on day 21” value ([1]; paclitaxel 60 mg/kg IV) was 0** %, the IC50 (Capan-1; 72 h, Capan-1, pancreatic, 3 days, SRB staining, read-out: IC50) was 4 nM and the “% T/C on day 6” value (KB-8.5 tumor; paclitaxel 60 mg/kg IV) was 63** %. The “% T/C on day 14” value (KB-8.5 tumor; paclitaxel 60 mg/kg IV) was 86%, the IC50 (HL60; HL-60, 72 h, HL60, leukemia, 3 days, MTS assay, read-out: IC50) was 1.8 nM and the IC50 (HL60; HL-60, HL60 parental, Table 5, read-out: HL60 IC50, nM (N)) was 1.8 nM. For the same molecule, the response of tumors ([2]; DLD-1, MX-1W or HCT-15 tumors, at or near the MTD) was “no response”, the IC50 (KB-V1 (MDR1++); 72 h, KB-V1, 3 days, SRB, vehicle (DMSO), no MDR-1 inhibitor, mean of two experiments) was over 3000 nM and the IC50 (KB-V1 (MDR1++); 72 h, read-out: IC50 + 5.0 uM MDR-1 inhibitor, KB-V1, 3 days, SRB, + 5.0 uM MDR-1 inhibitor (heptanenitrile), mean of two experiments) was 15 nM. For the same molecule, the IC50 (KB-V1 (MDR1++); read-out: KB-V1 (MDR1++) IC50, nM (N), KB-V1, high MDR1 expression, Table 3) was 5480 ± 2780 nM, the IC50 (U87; U87, glioblastoma, 3 days, SRB staining, read-out: IC50) was 25.1 nM and the IC50 (CCRF-CEM; leukemia, 3 days, MTS assay, read-out: IC50) was 3.3 ± 1.3 nM. The IC50 (KB-3-1; Homo sapiens, KB 3-1, 72 h, KB-3-1, epidermoid, 3 days, SRB staining, read-out: IC50) was 3.9 ± 1.8 nM, the IC50 (KB-3-1; Homo sapiens, KB 3-1, 72 h, KB-3-1, 3 days, SRB, + 5.0 uM MDR-1 inhibitor (heptanenitrile), mean of two experiments, read-out: IC50 + 5.0 uM MDR-1 inhibitor) was 2.1 nM and the IC50 (KB-3-1; Homo sapiens, KB 3-1, 72 h, KB-3-1, 3 days, SRB, vehicle (DMSO), no MDR-1 inhibitor, mean of two experiments, read-out: IC50) was 2.2 nM. The IC50 (KB-3-1; Homo sapiens, KB 3-1, 72 h, amount of drug needed to kill 50% of cells after three days continuous exposure, Table 11, read-out: IC50 in parental cell line KB-3-1) was 3.9 nM, the IC50 (KB-3-1; Homo sapiens, KB 3-1, KB-3-1, Table 6, read-out: KB-3-1 IC50) was 2.74 ± 0.39 nM and the IC50 (KB-3-1; Homo sapiens, KB 3-1, KB-3-1 parental, Table 3, read-out: KB-3-1 IC50, nM (N)) was 3.9 ± 1.8 nM. The IC50 (KB-3-1; Homo sapiens, KB 3-1, KB-3-1 parental, Table 8, read-out: KB-3-1 IC50) was 2.66 ± 0.92 nM.
With CN[C@H](C(=O)N[C@H](C(=O)N(C)[C@H](/C=C(\C)C(=O)O)C(C)C)C(C)(C)C)C(C)(C)c1ccccc1 [Example 129, N,β,β-trimethyl-L-phenylalanyl-N^1-[(1S,2E)-3-carboxy-1-isopropylbut-2-enyl]-N^1,3-dimethyl-L-valinamide] the IC50 (Lox; LOX) was 1.4 ± 0.6 nM, the “(RR) relative resistance vs. parental cells” value (KB-HTI-4.0) was “(12)” and the “resistance of KB-3-1-derived cell lines selected with Example 129” value (KB-HTI-4.0) was “approximately 12 fold”. The IC50 (KB-HTI-4.0; KB 3-1, read-out: KB-HTI-4.0 IC50, nM) was 6.5 ± 1.6 nM, the IC50 (SW620) was 3.6 ± 0.8 nM and the IC50 (A375) was 1.1 ± 0.8 nM. The “growth inhibition of epidermoid KB-3-1 tumors” value ([1]; IV in saline, days 1, 5, 9 post-staging, 0.5-1 mg/kg, tumors 1-2 gram) was over 95%, the “% T/C on day 7” value ([1]; Example 129 1.6 mg/kg IV) was 10** % and the “% T/C on day 14” value ([1]; Example 129 1.6 mg/kg IV) was 1** %. For the same molecule, the “% T/C on day 21” value ([1]; Example 129 1.6 mg/kg IV) was 23* %, the IC50 (Capan-1; CAPAN-1, 72 h) was 1.4 nM and the “% T/C on day 6” value (KB-8.5 tumor; Example 129 1.6 mg/kg IV) was 25** %. The “% T/C on day 14” value (KB-8.5 tumor; Example 129 1.6 mg/kg IV) was 16%, the “% T/C on day 21” value (KB-8.5 tumor; Example 129 1.6 mg/kg IV) was 47** % and the IC50 (HL60; HL-60, 72 h) was 0.21 ± 0.05 nM. For the same molecule, the IC50 (HL60; HL-60, read-out: HL60 IC50, nM (N)) was 0.212 ± 0.048 nM, the “inhibition of tumor growth” value ([2]; tumors derived from DLD-1, MX-1W or HCT-15) was 60-95% and the “RR, relative resistance” value (KB-V1 (MDR1++)) was 81. For the same molecule, the “Ratio KBV1/KB” value (KB-V1 (MDR1++)) was 80.6, the “resistance of KB-V1 cells” value (KB-V1 (MDR1++)) was 81 fold and the IC50 (KB-V1 (MDR1++); 72 h) was 57 nM. It also gave an IC50 (KB-V1 (MDR1++); 72 h, read-out: IC50 + 5.0 uM MDR-1 inhibitor) of 1.3 nM, an IC50 (KB-V1 (MDR1++); read-out: KB-V1 (MDR1++) IC50, nM (N)) of 77.4 nM and an IC50 (U87) of 2.4 ± 0.3 nM. For the same molecule, the IC50 (CCRF-CEM) was 0.2 ± 0.03 nM, the IC50 (KB-3-1) was 1.2 nM and the IC50 (KB-3-1; Homo sapiens, KB 3-1) was about 1 nM. It also gave an IC50 (KB-3-1; Homo sapiens, KB 3-1, 72 h) of 0.96 nM, an IC50 (KB-3-1; Homo sapiens, KB 3-1, 72 h, read-out: IC50 + 5.0 uM MDR-1 inhibitor) of 0.9 nM and an IC50 (KB-3-1; Homo sapiens, KB 3-1, 72 h, read-out: IC50 in parental cell line KB-3-1) of 1 nM. The IC50 (KB-3-1; Homo sapiens, KB 3-1, read-out: KB-3-1 IC50 (nM)) was 0.612 ± 0.023 nM, the IC50 (KB-3-1; Homo sapiens, KB 3-1, read-out: KB-3-1 IC50, nM) was 0.53 ± 0.05 nM and the IC50 (KB-3-1; Homo sapiens, KB 3-1, read-out: KB-3-1 IC50, nM (N)) was 0.96 nM.
